# What was measured:
# [1] = molecular target: T1, DPP-IV enzyme (Homo sapiens, UniProt P27487); experiment: In vitro DPP-IV enzymatic assay; assay type: biochemical; conditions: means of three independent determinations
# T1 construct: purchased Cayman Chemical (only as the URL of the kit insert) 700210
# Text: The prepared compounds were investigated in vitro for their ability to inhibit the DPP-IV enzyme, and the detailed method is already described in our previously published paper.
# [2] = tested on: STZ-induced diabetic rats; experiment: In vivo antidiabetic activity, STZ-induced T2DM model, fasting blood glucose; set-up: species or system Wistar rats; conditions: compounds 50 mg/kg, sitagliptin 10 mg/kg, daily for 21 days, six rats
# Text: The antihyperglycemic potential of certain compounds was investigated in Wistar rats. STZ-induced diabetic rats were employed for the antihyperglycemic testing. The animal experiments were approved by the Institutional Animal Ethics Committee (IAEC) in New Delhi, India (Protocol Number: IAEC/MCP/009/2020). During the research period, the Committee for the Purpose of Control and Supervision of Experiments on Animals (CPCSEA) and IAEC criteria for animal care were followed.
# Rats were given a high-fat diet after one week of acclimation. Diabetes was induced in the animals as per the method each described in [25]. Rats were then divided into six groups with six animals. Group I served as normal control with normal rats receiving the vehicle only. Group II served as diabetes control in which rats received the vehicle only. […] Groups IV, V, and VI served as test groups and received compounds 1b, 5b, and 4c, respectively, at doses of 50 mg/kg b.w. The diabetic rats were given the tested compound suspended in 0.5% w/v CMC every day for 21 days. On days 1, 7, 14, and 21, blood samples were taken from the tail veins of each animal that had fasted overnight. A glucometer was used to measure blood glucose levels.
# [3] = tested on: rats; experiment: Acute toxicity studies (OECD guideline 423); assay type: in vivo; conditions: oral, 500 mg/kg body weight, monitored for 72 h
# Description: Acute toxicity studies were performed as per the OECD guideline 423. For compounds 1b, 4c, and 5b, three groups of six rats weighing 80–120 g were starved overnight and given the test compounds orally at doses of 200, 500, 1000, and 2000 mg/kg body weight. The animals were monitored for 72 h, for symptoms of acute toxicity, such as increased or reduced motor activity, tremors, convulsions, and drowsiness, among others. […] As a result, the OECD-recommended dosage for assessing the antidiabetic action was set at 50 mg/kg (i.e., […]).
# [4] = tested on: ob/ob mice; conditions: 10 mg/kg p.o., cited from earlier work
# T1 sequence (P27487 whole entry): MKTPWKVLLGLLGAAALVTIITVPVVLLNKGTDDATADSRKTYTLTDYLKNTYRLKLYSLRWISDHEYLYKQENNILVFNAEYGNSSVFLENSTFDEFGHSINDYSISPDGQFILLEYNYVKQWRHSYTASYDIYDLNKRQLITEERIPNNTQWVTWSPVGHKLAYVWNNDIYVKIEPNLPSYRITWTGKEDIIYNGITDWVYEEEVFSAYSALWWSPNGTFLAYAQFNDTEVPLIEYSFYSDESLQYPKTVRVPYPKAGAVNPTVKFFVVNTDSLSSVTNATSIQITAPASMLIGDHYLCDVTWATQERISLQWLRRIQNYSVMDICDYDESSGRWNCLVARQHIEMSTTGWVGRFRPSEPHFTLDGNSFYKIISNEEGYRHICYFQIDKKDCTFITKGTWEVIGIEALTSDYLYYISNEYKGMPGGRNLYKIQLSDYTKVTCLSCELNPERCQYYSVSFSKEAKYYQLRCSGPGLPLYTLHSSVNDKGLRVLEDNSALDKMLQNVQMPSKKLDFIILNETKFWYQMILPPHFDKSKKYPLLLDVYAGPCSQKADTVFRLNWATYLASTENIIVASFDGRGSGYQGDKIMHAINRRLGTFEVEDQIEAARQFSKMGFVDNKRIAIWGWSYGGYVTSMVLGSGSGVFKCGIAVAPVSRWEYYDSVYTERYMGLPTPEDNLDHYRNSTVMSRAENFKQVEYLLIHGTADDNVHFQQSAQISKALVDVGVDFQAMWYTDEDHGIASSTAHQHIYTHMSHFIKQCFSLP
SMILES,inhibition at 50 µM [1] [%],IC50 [1] [µM],also measured
"COc1ccccc1/C=N/NC(=O)C1=C(C)NC(=O)NC1c1ccccc1F (stereo not shown) [Compound 4c, (E)--4-(2-Fluorophenyl)-N-(2-methoxybenzyldene)-6-methyl-2-oxo-1,2,3,4-tetrahydropyrimidine-5-carbohydrazide]",60.4 ± 0.08,34.94 ± 0.0016,"Fasting Blood Glucose ± SEM, On Day 1 [2]: 264.66 ± 5.70 mg/dL; Fasting Blood Glucose ± SEM, On Day 7 [2]: 237.16 ± 9.01 mg/dL; Fasting Blood Glucose ± SEM, On Day 14 [2]: 194.83 ± 4.81 mg/dL; Fasting Blood Glucose ± SEM, On Day 21 [2]: 169.66 ± 8.53 mg/dL; Acute toxicity, mortality [3]: more than half of the animals died"
"CC1=C(C(=O)N/N=C/c2ccccc2)C(c2ccccc2Cl)NC(=O)N1 (stereo not shown) [Compound 2a, (E)-N-Benzylidene-4-(2-chlorophenyl)-6-methyl-2-oxo-1,2,3,4-tetrahydropyrimidin-5-carbohydrazide]",61.25 ± 0.16,32.41 ± 0.0033,
"CC1=C(C(=O)N/N=C/c2ccccc2)C(c2ccccc2)NC(=O)N1 (stereo not shown) [Compound 1a, (E)-N-Benzylidene-6-methyl-2-oxo-4-phenyl-1,2,3,4-tetrahydropyrimidine-5-carbohydrazide]",40.74 ± 0.38,58.95 ± 0.0012,
"CC1=C(C(=O)N/N=C/c2ccccc2O)C(c2ccc(F)cc2F)NC(=O)N1 (stereo not shown) [Compound 5b, (E)--4-(2,4-Difluorophenyl)-N-(2-hydroxybenzyldene)-6-methyl-2-oxo-1,2,3,4-tetrahydropyrimidine-5-carbohydrazide]",70.7 ± 0.37,28.13 ± 0.0029,"Fasting Blood Glucose ± SEM, On Day 1 [2]: 253.83 ± 4.49 mg/dL; Fasting Blood Glucose ± SEM, On Day 7 [2]: 182.00 ± 8.11 mg/dL; Fasting Blood Glucose ± SEM, On Day 14 [2]: 167.16 ± 6.23 mg/dL; Fasting Blood Glucose ± SEM, On Day 21 [2]: 157.33 ± 5.75 mg/dL; Fasting Blood Glucose ± SEM, On Day 21 ([2]; listed as Compound 5b): 157.33 ± 5.75 mg/dL; Acute toxicity, mortality [3]: more than half of the animals died"
"COc1ccc(/C=N/NC(=O)C2=C(C)NC(=O)NC2c2ccccc2)cc1 (stereo not shown) [Compound 1d, (E)-N-(4-Methoxybenzylidene)-6-methyl-2-oxo-4-phenyl-1,2,3,4-tetrahydropyrimidine-5-carbohydrazide]",57.74 ± 0.38,38.26 ± 0.005,
"COc1ccccc1/C=N/NC(=O)C1=C(C)NC(=O)NC1c1ccccc1 (stereo not shown) [Compound 1c, (E)-N-(2-Methoxybenzylidene)-6-methyl-2-oxo-4-phenyl-1,2,3,4-tetrahydropyrimidine-5-carbohydrazide]",56.47 ± 0.37,39.72 ± 0.0027,
"CC1=C(C(=O)N/N=C/c2ccccc2O)C(c2ccccc2)NC(=O)N1 (stereo not shown) [Compound 1b, (E)-N-(2-Hydroxybenzylidene)-6-methyl-2-oxo-4-phenyl-1,2,3,4-tetrahydropyrimidine-5-carbohydrazide]",42.69 ± 0.28,54.73 ± 0.0025,"Fasting Blood Glucose ± SEM, On Day 1 [2]: 261.00 ± 8.44 mg/dL; Fasting Blood Glucose ± SEM, On Day 7 [2]: 215.03 ± 3.29 mg/dL; Fasting Blood Glucose ± SEM, On Day 14 [2]: 187.05 ± 6.48 mg/dL; Fasting Blood Glucose ± SEM, On Day 21 [2]: 160.12 ± 6.18 mg/dL; Acute toxicity, mortality [3]: more than half of the animals died"
"N[C@@H](CC(=O)N1CCn2c(nnc2C(F)(F)F)C1)Cc1cc(F)c(F)cc1F [Sitagliptin, reference compound]",,,"Fasting Blood Glucose ± SEM, On Day 1 [2]: 240.16 ± 9.88 mg/dL; Fasting Blood Glucose ± SEM, On Day 7 [2]: 178.66 ± 6.92 mg/dL; Fasting Blood Glucose ± SEM, On Day 14 [2]: 175.16 ± 8.61 mg/dL; Fasting Blood Glucose ± SEM, On Day 21 [2]: 133.50 ± 11.80 mg/dL; Long-term inhibition ([4]; after 8 h): > 70%; Glucose excursion ([4]; at 8 h): 35%"

# The next lines start with results.
inhibition at 50 µM [1] [%],IC50 [1] [µM],SMILES,also measured
61.25 ± 0.16,33.91 ± 0.0029,"CC1=C(C(=O)N/N=C/c2ccccc2)C(c2ccc(Cl)cc2Cl)NC(=O)N1 (stereo not shown) [Compound 3a, (E)-N-Benzylidene-4-(2,4-dichlorophenyl)-6-methyl-2-oxo-1,2,3,4-tetrahydropyrimidine-5-carbohydrazide]",
61 ± 0.08,33.73 ± 0.0024,COc1ccccc1/C=N/NC(=O)C1=C(C)NC(=O)NC1c1ccc(Cl)cc1Cl (stereo not shown) [Compound 3c],
61 ± 0.08,33.79 ± 0.0021,"CC1=C(C(=O)N/N=C/c2ccccc2O)C(c2ccc(Cl)cc2Cl)NC(=O)N1 (stereo not shown) [Compound 3b, (E)--4-(2,4-Dichlorophenyl)-N-(2-hydroxybenzyldene)-6-methyl-2-oxo-1,2,3,4-tetrahydropyrimidine-5-carbohydrazide]",
63.8 ± 0.16,31.75 ± 0.0027,"CC1=C(C(=O)N/N=C/c2ccccc2O)C(c2ccccc2F)NC(=O)N1 (stereo not shown) [Compound 4b, (E)--4-(2-Fluorophenyl)-N-(2-hydroxybenzyldene)-6-methyl-2-oxo-1,2,3,4-tetrahydropyrimidine-5-carbohydrazide]",
57.74 ± 0.38,38.62 ± 0.0025,"COc1ccc(/C=N/NC(=O)C2=C(C)NC(=O)NC2c2ccccc2F)cc1 (stereo not shown) [Compound 4d, (E)--4-(2-Fluorophenyl)-N-(4-methoxybenzyldene)-6-methyl-2-oxo-1,2,3,4-tetrahydropyrimidine-5-carbohydrazide]",
44.2 ± 0.28,65.31 ± 0.0021,"CC1=C(C(=O)N/N=C/c2ccccc2)C(c2ccc(F)cc2F)NC(=O)N1 (stereo not shown) [Compound 5a, (E)-N-Benzylidene-4-(2,4-difluorophenyl)-6-methyl-2-oxo-1,2,3,4-tetrahydropyrimidine-5-carbohydrazide]",
65.5 ± 0.08,31.93 ± 0.0029,"CC1=C(C(=O)N/N=C/c2ccccc2O)C(c2ccccc2Cl)NC(=O)N1 (stereo not shown) [Compound 2b, (E)-4-(2-Chlorophenyl)-N-(2-hydroxybenzylidene)-6-methyl-2-oxo-1,2,3,4-tetrahydropyrimidine-5-carbohydrazide]",
58.54 ± 0.27,37.63 ± 0.0026,COc1ccccc1/C=N/NC(=O)C1=C(C)NC(=O)NC1c1ccc(F)cc1F (stereo not shown) [Compound 5c],
63.25 ± 0.05,33.97 ± 0.0025,"COc1ccccc1/C=N/NC(=O)C1=C(C)NC(=O)NC1c1ccccc1Cl (stereo not shown) [Compound 2c, (E)-4-(2-Chlorophenyl)-N-(2-methoxybenzylidene)-6-methyl-2-oxo-1,2,3,4-tetrahydropyrimidine-5-carbohydrazide]",
64.78 ± 0.33,31.72 ± 0.0021,"COc1ccc(/C=N/NC(=O)C2=C(C)NC(=O)NC2c2ccccc2Cl)cc1 (stereo not shown) [Compound 2d, (E)-4-(2-Chlorophenyl)-N-(4-methoxybenzylidene)-6-methyl-2-oxo-1,2,3,4-tetrahydropyrimidine-5-carbohydrazide]",
64.78 ± 0.33,30.47 ± 0.0025,CC1=C(C(=O)N/N=C/c2ccccc2)C(c2ccccc2F)NC(=O)N1 (stereo not shown) [Compound 4a],

# Reference: publication PMC9822036, “Virtual Screening, Synthesis, and Biological Evaluation of Some Carbohydrazide Derivatives as Potential DPP-IV Inhibitors” (Molecules, 2022)
